Patent publication US20110195900A1, “PEPTIDIC PTH RECEPTOR AGONISTS” (FERRING B.V., priority 2008, published 2011)
Where two headings read alike, the source gives them in different places. Non-standard residues stand in square brackets, D forms with d. Residues, ends and D or L forms follow the SMILES beside them. 1Nal = N[C@@H](Cc1cccc2ccccc12)C(=O)O; β3hI = CC[C@H](C)[C@H](N)CC(=O)O; β3hR = N=C(N)NCCC[C@H](N)CC(=O)O; β3hK = NCCCC[C@H](N)CC(=O)O; hSer = N[C@@H](CCO)C(=O)O; Nle = CCCC[C@H](N)C(=O)O; Aib = CC(C)(N)C(=O)O

Key:
human PTH-1 receptor = molecular target: T1, human PTH-1 receptor (Homo sapiens, UniProt Q03431); assay: Reporter gene assay (CRE-luciferase) for agonist activity in transiently transfected HEK-293 cells; type: cell-based; settings: for hPTHR-2/hPTHR-1: selectivity for hPTH-1 receptor over hPTH-2 receptor
T1 construct: expressed in transfected cells; host or cells: HEK-293
T1 sequence (Q03431 27-593): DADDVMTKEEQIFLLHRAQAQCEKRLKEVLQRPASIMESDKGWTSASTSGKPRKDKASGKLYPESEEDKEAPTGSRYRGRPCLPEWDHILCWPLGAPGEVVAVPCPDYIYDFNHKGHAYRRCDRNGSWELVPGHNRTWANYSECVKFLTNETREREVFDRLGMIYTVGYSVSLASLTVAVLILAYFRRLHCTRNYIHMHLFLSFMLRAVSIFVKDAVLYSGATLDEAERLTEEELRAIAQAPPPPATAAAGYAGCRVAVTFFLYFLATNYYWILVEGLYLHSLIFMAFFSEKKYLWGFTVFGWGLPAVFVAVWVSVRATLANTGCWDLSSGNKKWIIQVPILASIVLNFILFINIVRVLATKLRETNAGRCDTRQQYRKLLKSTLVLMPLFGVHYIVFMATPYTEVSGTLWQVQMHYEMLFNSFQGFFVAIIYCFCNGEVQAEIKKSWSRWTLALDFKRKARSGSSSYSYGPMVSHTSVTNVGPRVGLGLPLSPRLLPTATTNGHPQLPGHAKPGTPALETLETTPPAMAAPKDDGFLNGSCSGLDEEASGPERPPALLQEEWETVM
Method in brief: (§1)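 HEK-293 cells transiently transfected with SV40-driven human PTH-1 receptor and CRE-luciferase reporter, exposed to serial compound dilutions for 4-5 h, then lysed for luciferase readout; efficacy and EC50 by non-linear regression, PTH (1-34) as internal control, n≥3. Selectivity measured in analogous human PTH-2 receptor luciferase reporter assays.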

human PTH-2 receptor = molecular target: T2, human PTH-2 receptor (Homo sapiens, UniProt P49190); assay: Luciferase-based transcriptional reporter gene assay for selectivity; type: cell-based
T2 construct: expressed in transfected cells
T2 sequence (P49190 25-550): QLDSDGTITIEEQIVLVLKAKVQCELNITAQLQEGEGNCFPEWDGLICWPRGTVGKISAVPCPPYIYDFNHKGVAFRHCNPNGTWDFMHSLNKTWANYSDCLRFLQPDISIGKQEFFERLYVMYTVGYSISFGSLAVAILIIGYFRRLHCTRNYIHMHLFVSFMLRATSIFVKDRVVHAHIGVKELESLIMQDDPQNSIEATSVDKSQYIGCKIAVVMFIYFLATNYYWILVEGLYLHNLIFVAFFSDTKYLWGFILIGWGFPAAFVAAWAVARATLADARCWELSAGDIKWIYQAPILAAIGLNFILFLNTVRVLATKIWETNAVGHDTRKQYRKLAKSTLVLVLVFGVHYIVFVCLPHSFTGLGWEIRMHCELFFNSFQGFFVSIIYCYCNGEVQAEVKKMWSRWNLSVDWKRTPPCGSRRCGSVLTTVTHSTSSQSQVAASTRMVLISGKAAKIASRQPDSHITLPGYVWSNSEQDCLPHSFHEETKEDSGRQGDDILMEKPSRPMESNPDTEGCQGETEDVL
Method in brief: as §1

EC50 (human PTH-1 receptor; Table 3, HEK-293 cells, CRE-luciferase, 4-5 hours exposure, read-out: hPTHR-1 EC50) [nM] | EC50 (human PTH-2 receptor; Table 3, luciferase reporter gene assay, read-out: hPTHR-2 EC50) [nM] | Structure (SMILES) | EC50 (human PTH-1 receptor) [nM] | hPTHR-2/hPTHR-1 (human PTH-1 receptor; Table 3, ratio of EC50 values) | EC50 (human PTH-2 receptor) [nM] | Selectivity hPTHR-2/hPTHR-1 (human PTH-1 receptor; Table 4 comparison data, ratio of EC50 values)
 |  | CCCC[C@H](NC(=O)[C@H](CC(C)C)NC(=O)[C@H](CCC(N)=O)NC(=O)[C@@H](NC(=O)[C@H](CCC(=O)O)NC(=O)[C@H](CO)NC(=O)[C@@H](NC(=O)[C@@H](N)CO)C(C)C)[C@@H](C)CC)C(=O)N[C@@H](Cc1c[nH]cn1)C(=O)N[C@@H](CC(N)=O)C(=O)N[C@@H](CC(C)C)C(=O)NCC(=O)N[C@@H](CCCCN)C(=O)N[C@@H](Cc1c[nH]cn1)C(=O)N[C@@H](CC(C)C)C(=O)N[C@@H](CCCCN)C(=O)N[C@@H](CO)C(=O)N[C@H](CC(=O)N[C@@H](CCC(=O)O)C(=O)N[C@@H](CCCNC(=N)N)C(=O)N[C@H](C(=O)N[C@@H](CCC(=O)O)C(=O)N[C@@H](Cc1cccc2ccccc12)C(=O)N[C@@H](CC(C)C)C(=O)N[C@@H](CCCNC(=N)N)C(=O)N[C@@H](CCCCN)C(=O)N[C@@H](CC(C)C)C(=O)N[C@@H](CC(C)C)C(=O)N[C@@H](CCC(N)=O)C(=O)N[C@@H](CCCNC(=N)N)C(=O)N[C@H](C(=O)N[C@@H](Cc1c[nH]cn1)C(=O)N[C@@H](CCC(=O)O)C(=O)N[C@@H](Cc1ccccc1)C(N)=O)C(C)C)C(C)C)[C@@H](C)CC [SEQ ID NO: 41, [Nle^8, Lys^16, β-hIle^18,1-Nal^23, Leu^27, Arg^30, Glu^33] hPTH (1-34)-NH2] (H-SVSEIQL[Nle]HNLGKHLKS[β3hI]ERVE[1Nal]LRKLLQRVHEF-NH2) | 0.09 | 157 | 14 | 
 |  | CCCC[C@H](NC(=O)[C@H](CC(C)C)NC(=O)[C@H](CCC(N)=O)NC(=O)[C@@H](NC(=O)[C@H](CCC(=O)O)NC(=O)[C@H](CO)NC(=O)[C@@H](NC(=O)C(C)(C)N)C(C)C)[C@@H](C)CC)C(=O)N[C@@H](Cc1c[nH]cn1)C(=O)N[C@@H](CC(N)=O)C(=O)N[C@@H](CC(C)C)C(=O)NCC(=O)N[C@@H](CCCCN)C(=O)N[C@@H](Cc1c[nH]cn1)C(=O)N[C@@H](CC(C)C)C(=O)N[C@@H](CC(N)=O)C(=O)N[C@@H](CO)C(=O)N[C@@H](CCCNC(=N)N)CC(=O)N[C@@H](CCC(=O)O)C(=O)N[C@@H](CCCNC(=N)N)C(=O)N[C@H](C(=O)N[C@@H](CCC(=O)O)C(=O)N[C@@H](Cc1cccc2ccccc12)C(=O)N[C@@H](CC(C)C)C(=O)N[C@@H](CCCNC(=N)N)C(=O)N[C@@H](CCCCN)C(=O)N[C@@H](CC(C)C)C(=O)N[C@@H](CC(C)C)C(=O)N[C@@H](CCC(N)=O)C(=O)N[C@@H](CC(=O)O)C(=O)N[C@H](C(=O)N[C@@H](Cc1c[nH]cn1)C(=O)N[C@@H](CC(N)=O)C(=O)N[C@@H](Cc1ccccc1)C(N)=O)C(C)C)C(C)C [SEQ ID NO: 43, [Aib^1, Nle^8, β-hArg^18,1-Nal^23, Leu^27] hPTH (1-34)-NH2] (H-[Aib]VSEIQL[Nle]HNLGKHLNS[β3hR]ERVE[1Nal]LRKLLQDVHNF-NH2) | 0.05 | 312 | 16 | 312
 |  | CCCC[C@H](NC(=O)[C@H](CC(C)C)NC(=O)[C@H](CCC(N)=O)NC(=O)[C@@H](NC(=O)[C@H](CCC(=O)O)NC(=O)[C@H](CO)NC(=O)[C@@H](NC(=O)[C@@H](N)CO)C(C)C)[C@@H](C)CC)C(=O)N[C@@H](Cc1c[nH]cn1)C(=O)N[C@@H](CO)C(=O)N[C@@H](CC(C)C)C(=O)NCC(=O)N[C@@H](CCCCN)C(=O)N[C@@H](Cc1c[nH]cn1)C(=O)N[C@@H](CC(C)C)C(=O)N[C@@H](CCCCN)C(=O)N[C@@H](CO)C(=O)N[C@H](CC(=O)N[C@@H](CCC(=O)O)C(=O)N[C@@H](CCCNC(=N)N)C(=O)N[C@H](C(=O)N[C@@H](CCC(=O)O)C(=O)N[C@@H](Cc1cccc2ccccc12)C(=O)N[C@@H](CC(C)C)C(=O)N[C@@H](CCCNC(=N)N)C(=O)N[C@@H](CCCCN)C(=O)N[C@@H](CC(C)C)C(=O)N[C@@H](CC(C)C)C(=O)N[C@@H](CCC(N)=O)C(=O)N[C@@H](CCCNC(=N)N)C(=O)N[C@H](C(=O)N[C@@H](Cc1c[nH]cn1)C(=O)N[C@@H](CCC(=O)O)C(=O)N[C@@H](CCC(=O)O)C(N)=O)C(C)C)C(C)C)[C@@H](C)CC [SEQ ID NO: 44, [Nle^8, Ser^10, Lys^16, β-hIle^18,1-Nal^23, Leu^27, Arg^30, Glu^33, Glu^34] hPTH (1-34)-NH2] (H-SVSEIQL[Nle]HSLGKHLKS[β3hI]ERVE[1Nal]LRKLLQRVHEE-NH2) | 0.04 | 154 | 6 | 
 |  | CCCC[C@H](NC(=O)[C@H](CC(C)C)NC(=O)[C@H](CCC(N)=O)NC(=O)[C@@H](NC(=O)[C@H](CCC(=O)O)NC(=O)[C@H](CO)NC(=O)[C@@H](NC(=O)C(C)(C)N)C(C)C)[C@@H](C)CC)C(=O)N[C@@H](Cc1c[nH]cn1)C(=O)N[C@@H](CO)C(=O)N[C@@H](CC(C)C)C(=O)NCC(=O)N[C@@H](CCCCN)C(=O)N[C@@H](Cc1c[nH]cn1)C(=O)N[C@@H](CC(C)C)C(=O)N[C@@H](CCCCN)C(=O)N[C@@H](CO)C(=O)N[C@H](CC(=O)N[C@@H](CCC(=O)O)C(=O)N[C@@H](CCCNC(=N)N)C(=O)N[C@H](C(=O)N[C@@H](CCC(=O)O)C(=O)N[C@@H](Cc1cccc2ccccc12)C(=O)N[C@@H](CC(C)C)C(=O)N[C@@H](CCCNC(=N)N)C(=O)N[C@@H](CCCCN)C(=O)N[C@@H](CC(C)C)C(=O)N[C@@H](CC(C)C)C(=O)N[C@@H](CCC(N)=O)C(=O)N[C@@H](CCCNC(=N)N)C(=O)N[C@H](C(N)=O)C(C)C)C(C)C)[C@@H](C)CC [SEQ ID NO: 45, [Aib^1, Nle^8, Ser^10, Lys^16, β-hIle^18,1-Nal^23, Leu^27, Arg^30] hPTH (1-31)-NH2] (H-[Aib]VSEIQL[Nle]HSLGKHLKS[β3hI]ERVE[1Nal]LRKLLQRV-NH2) | 0.09 | 72 | 6 | 
0.05 | 3 | CCCC[C@H](NC(=O)[C@H](CC(C)C)NC(=O)[C@H](CCC(N)=O)NC(=O)[C@@H](NC(=O)[C@H](CCC(=O)O)NC(=O)[C@H](CO)NC(=O)[C@@H](NC(=O)C(C)(C)N)C(C)C)[C@@H](C)CC)C(=O)N[C@@H](Cc1c[nH]cn1)C(=O)N[C@@H](CC(N)=O)C(=O)N[C@@H](CC(C)C)C(=O)NCC(=O)N[C@@H](CCCCN)C(=O)N[C@@H](Cc1c[nH]cn1)C(=O)N[C@@H](CC(C)C)C(=O)N[C@@H](CC(N)=O)C(=O)N[C@@H](CO)C(=O)N[C@@H](CCOC)C(=O)N[C@@H](CCCCN)CC(=O)N[C@@H](CCCNC(=N)N)C(=O)N[C@H](C(=O)N[C@@H](CCC(=O)O)C(=O)N[C@@H](Cc1cccc2ccccc12)C(=O)N[C@@H](CC(C)C)C(=O)N[C@@H](CCCNC(=N)N)C(=O)N[C@@H](CCCCN)C(=O)N[C@@H](CC(C)C)C(=O)N[C@@H](CC(C)C)C(=O)N[C@@H](CCC(N)=O)C(=O)N[C@@H](CC(=O)O)C(=O)N[C@H](C(=O)N[C@@H](Cc1c[nH]cn1)C(=O)N[C@@H](CC(N)=O)C(=O)N[C@@H](Cc1ccccc1)C(N)=O)C(C)C)C(C)C [SEQ ID NO: 47, [Aib^1, Nle^8, hSer(OMe)^18, β-hLys^19,1-Nal^23, Leu^27] hPTH (1-$$4)-NH2] (H-[Aib]VSEIQL[Nle]HNLGKHLNS[hSer](Me)[β3hK]RVE[1Nal]LRKLLQDVHNF-NH2) |  | 51 |  | 
 |  | CCCC[C@H](NC(=O)[C@H](CC(C)C)NC(=O)[C@H](CCC(N)=O)NC(=O)[C@@H](NC(=O)[C@H](CCC(=O)O)NC(=O)[C@H](CO)NC(=O)[C@@H](NC(=O)[C@@H](N)CO)C(C)C)[C@@H](C)CC)C(=O)N[C@@H](Cc1c[nH]cn1)C(=O)N[C@@H](CO)C(=O)N[C@@H](CC(C)C)C(=O)NCC(=O)N[C@@H](CCCCN)C(=O)N[C@@H](Cc1c[nH]cn1)C(=O)N[C@@H](CC(C)C)C(=O)N[C@@H](CCCCN)C(=O)N[C@@H](CO)C(=O)N[C@H](CC(=O)N[C@@H](CCC(=O)O)C(=O)N[C@@H](CCCNC(=N)N)C(=O)N[C@H](C(=O)N[C@@H](CCC(=O)O)C(=O)N[C@@H](Cc1cccc2ccccc12)C(=O)N[C@@H](CC(C)C)C(=O)N[C@@H](CCCNC(=N)N)C(=O)N[C@@H](CCCCN)C(=O)N[C@@H](CC(C)C)C(=O)N[C@@H](CC(C)C)C(=O)N[C@@H](CCC(N)=O)C(=O)N[C@@H](CCCNC(=N)N)C(=O)N[C@H](C(N)=O)C(C)C)C(C)C)[C@@H](C)CC [SEQ ID NO: 49, [Nle^8, Ser^10, Lys^16, β-hIle^18,1-Nal^23, Leu^27, Arg^30] hPTH (1-31)-NH2] (H-SVSEIQL[Nle]HSLGKHLKS[β3hI]ERVE[1Nal]LRKLLQRV-NH2) | 0.08 | 87 | 7 | 
